Data: PMC5672024, “Selective Glucocorticoid Receptor Properties of GSK866 Analogs with Cysteine Reactive Warheads” (Frontiers in Immunology, 2017)

Assays:
[1] = system: GR transactivation, p(GRE)2-50-luc reporter in HaCat cells; assay: p(GRE)2-50-luc reporter gene assay (GR transactivation); type: cell-based; details: 6 h, 10 nM
Procedure: In order to compare transactivation and transrepression potencies of the different synthesized GSK866 analogs, we performed GRE- and NFκB-luciferase-dependent reporter gene studies in stable transfected cell lines, as previously described ([3], [8]). HaCat cells expressing p(GRE)2 50-Luc and L929sA cells expressing p(GRE)250-Luc or p(NFκB)350-Luc were cultured in DMEM medium with 1% L-glutamine, supplemented with 10% feral bovine serum (FBS), 100 µg/ml streptomycin, and 100 IU/mL penicillin in a humidified 5% CO2 atmosphere. Cells were passaged every 2 days at a dilution of 1:6. Reporter gene cells were plated at a density of 0.5 × 10^5 cells/well in 24 well plates and grown overnight. p(GRE)250-Luc-dependent reporter gene cells were treated with solvent (DMSO) or compound (100 fM, 1 nM, 10 nM, 100 nM, and 1 µM) for 6 h, whereas in case of p(NFκB)350-Luc, TNF (2,500 IU/mL) was added 2 h following compound treatment. After incubation with the compounds, medium was removed and cells were washed twice with PBS followed by adding 100 µl of 1× lysis buffer (0.2 M K2HPO4, 0.2 M KH2PO4, Triton X-100, pH 7.6). 25 µl of lysate was assayed for luciferase activity by adding 50 µl of luciferase assay substrate (1 mM luciferin or luciferin salt, 3 mM ATP, and 15 mM MgSO4 in 30 mM HEPES buffer, pH 7.8) followed by 10 s mixing and measuring 1 s bioluminescence using an Envision multilabel reader (Perkin Elmer).
Figure 3 Selective glucocorticoid receptor agonist GSK866 analogs UAMC-1217, UAMC-1218 but not UAMC-1158 and UAMC-1159 elicit selective glucocorticoid receptor-transactivation and NFκB-transrepression properties. Glucocorticoid response element (GRE)- and NFκB-luciferase-dependent reporter gene assays were performed in L929sA and HaCat reporter cells which were stably transfected with, respectively, p(NFκB)3-50luc or p(GRE)2-50-luc constructs. For p(GRE)2-50-luc reporter assays, cells were solvent-treated or induced with different concentrations of Dex (A), Dex-mesylate (Dex-Mes) (A), SEGRA GSK866 (C) or analogs UAMC-1158 (D), UAMC-1159 (E), UAMC-1217 (F), and UAMC-1218 (G) as indicated for a total exposure time of 6 h, whereas cells were cotreated for TNF (2,500 IU/ml) in the last 4 h for p(NFkB)3-50luc reporter assays (B–G). Corresponding lysates were assayed for luciferase activities and normalized for protein content as described in the Section “Materials and Methods.” Promoter activities are expressed as relative induction factor (± standard deviation) i.e., the ratio of expression levels recorded either at induced and non-induced conditions, with the latter taken to be 1.

[2] = system: GR; assay: Cell-based GR ligand-binding competition assay with [3H]-dexamethasone; details: from IC50 values of ligand displacement assays; ref [14]

`CCN(C[C@@](O)(CNC(=O)c1cnn(-c2ccc(F)cc2)c1N)C(F)(F)F)C(=O)c1c(Cl)ccc(NC(=O)CCl)c1Cl` [UAMC-1217] was tested, and the “GR transactivation in GRE-luc reporter at 10 nM” value [1] was “significantly reduced GR transactivation to levels below transactivation observed with 10 nM of Dex” and the “fold lower GR-LBD affinity versus GSK866” value [2] was “approx. 5 fold”.
